What was measured:
[1] = test system: Bst DNA polymerase v.2.0; assay: Competition assay: one base extension, capillary electrophoresis and flow cytometry (Example 6); format: biochemical
Experimental: The final concentrations of various nucleotides in the mixtures were 5 micromolar (μM). […] A solution of biotinylated template (2 microliters (μL) of 100 μM) and dye-labeled primer (4 μL of 100 μM) were combined in annealing buffer (40 μL; Tris (10 millimolar (mM)), EDTA (1 mM), NaCl (100 mM)). The resulting solution was heated to 95° C. and allowed to slowly cool to room temperature. […] New England Biolabs) for five minutes. […] Next, a portion of the suspended magnetic beads (10 μL) were removed and placed in a PCR tube. A solution of nucleotides (10 μL) was added to the tube and the tube incubated for 40 seconds (s) at 50° C. The enzyme reaction was stopped with the addition of 5 μL of 50 mM EDTA. The beads were washed with 2×100 μL TET and resuspended in 20 μL TET. […] The eluant of the remaining beads was removed and 40 μL of 95:5 formamide:10 mM EDTA was added to the beads. A portion of the formamide solution (1 μL) was added to 40 μL 95:5 formamide EDTA. The solutions were examined by capillary electrophoresis (CE) on an ABI 3730 instrument and the peaks identified and quantitated by peak height. The experimental protocol is summarized schematically in FIG. 2.

[2] = test system: Bst DNA polymerase v.2.0; assay: Flow cytometry assay: tolerance of dye-labeled dUTP* compared to dUTP analogs (Example 7); format: biochemical; conditions: for Tolerance: tolerance of dUTP* compared to the named dUTP^0
Experimental: A solution of biotinylated template (2 microliters (μL) of 100 μM) and dye-labeled primer (4 μL of 100 μM) were combined in annealing buffer (40 μL; Tris (10 millimolar (mM)), EDTA (1 mM), NaCl (100 mM)). The resulting solution was heated to 95° C. and allowed to slowly cool to room temperature. A portion of this solution (8 μL) was mixed with streptavidin-labeled magnetic beads (4 μL of Invitrogen Dynabeads™ MyOne™ Streptavidin C1, 10 milligrams/milliliter (mg/mL); washed and eluant removed) and 2× bead wash buffer (8 μL; 10 mM Tris, pH 7.5, 1 mM EDTA, 2 M NaCl, 0.01% Triton X-100). After washing with TET solution (10 mM Tris, 1 mM EDTA, 0.05% Triton X-100) the beads were treated with Bst DNA polymerase v.2.0 (8 μL of 8 units (U)/μL; New England Biolabs) for five minutes. The excess enzyme was removed by washing with TET and the beads were suspended in 1×DNA polymerase buffer solution (20 mM Tris, pH 8, 10 mM NaCl, 2 mM MgCl2, 0.01% Triton X-100). The sequence of the biotinylated template was /52 Bio//iSp18/[…] […] (SEQ ID NO: 12), where “5” is indicative of the 5′-end of the oligo, 2-Bio indicates dual biotin, and iSP18 indicates a PEG spacer. […] […] (SEQ ID NO: 13), where “5” indicates the 5′-end of the oligo and JOE indicates a fluorescent dye attached to the oligo.
Next, a portion of the suspended magnetic beads (10 μL) were removed and placed in a PCR tube. A solution of nucleotides (10 μL) was added to the tube and the tube incubated for 40 seconds (s) at 50° C. The enzyme reaction was stopped with the addition of 5 μL of 50 mM EDTA. The beads were washed with 2×100 μL TET and resuspended in 20 μL TET. A portion of the bead solution (1 μL) was added to TE (200 μL) and the beads examined for red fluorescence on a flow cytometer (BD Accuri™, APC channel). The eluant of the remaining beads was removed and 40 μL of 95:5 formamide:10 mM EDTA was added to the beads. A portion of the formamide solution (1 μL) was added to 40 μL 95:5 formamide EDTA. The solutions were examined by capillary electrophoresis (CE) on an ABI 3730 instrument and the peaks identified and quantitated by peak height. The experimental protocol is summarized schematically in FIG. 2.
Tolerance was measured at two molar fractions, […] and 0.05, for each of the four dUTP analogs.

**Q.** For Cc1cn([C@H]2C[C@H](O)[C@@H](COP(=O)(O)OP(=O)(O)OP(=O)(O)O)O2)c(=O)[nH]c1=O [TTP, thymidine triphosphate, reference compound], which “CE product peaks of one base extension in competition with dUTP*” value ([1]; 5 micromolar, 40 s at 50° C.) is on record?
**A.** yields only a Pr-T peak

**Q.** What about the “flow cytometry signal of one base extension in competition with dUTP*” value ([1]; beads before stripping) of the same compound?
**A.** relatively low

**Q.** And the Apparent fraction ([2]; molar fraction dUTP* 0.05)?
**A.** 0.058

**Q.** What about the Red signal ([2]; molar fraction dUTP* 0.05, rest the named dUTP^0) of the same compound?
**A.** 2,900

**Q.** What about the Apparent fraction ([2]; molar fraction dUTP* 0.5) of the same compound?
**A.** 0.42

**Q.** What about the Red signal ([2]; molar fraction dUTP* 0.5, rest the named dUTP^0) of the same compound?
**A.** 21,000

**Q.** And the Tolerance ([2]; molar fraction dUTP* 0.05)?
**A.** 1.2

**Q.** What about the Tolerance ([2]; molar fraction dUTP* 0.5) of the same compound?
**A.** 0.8

Source: patent publication US11326207B2, “Sequencing using non-natural nucleotides” (Ultima Genomics, Inc., priority 2017, dated 2022)
